Experimental data as given in article PMC8318231, “Rate-of-Kill (RoK) assays to triage large compound sets for Chagas disease drug discovery: Application to GSK Chagas Box” (PLoS Neglected Tropical Diseases, 2021).

Assays:
[1] = system: T. cruzi Tulahuen trypomastigotes; assay: T. cruzi trypomastigote assay (Cell Titer-Glo viability, ATP luminescence); format: cell-based, Trypanosoma cruzi; settings: for Trypomastigotes pIC50 48 hours: 48 hours incubation; for Trypomastigotes pIC50 48 hours / Trypomastigotes pIC50 72 hours: pIC50 = -log10 IC50 in molar units; for Trypomastigotes pIC50 72 hours: 72 hours incubation; for 72 pIC50 (trypomastigotes, raw data of Fig 1D): 72 hours, plotted values, censored values given without sign; for 48 pIC50 / 72 pIC50: trypomastigote assay; for 48 pIC50: 48 h; for 72 pIC50: 72 h
Procedure, shortened: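 Compounds were tested in dose response or once at a final 5 μM against 5 × 10^4 trypomastigotes per well (DMEM, 2% FBS), collected on days 5–8 from LLC-MK2 infected cultures. ATP luminescence via CellTiter-Glo reports live parasites; DMSO defines 0% and cell-free wells 100% effect.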

[2] = system: T. cruzi intracellular amastigotes in H9c2 cells; assay: Rate-of-Kill (RoK) high-content imaging assay, amastigotes per cell (AM/CELL) and curve descriptors; format: cell-based, Trypanosoma cruzi; design: key to ME_24h / ME_48h / ME_72h: % reduction in parasite burden (cidal response); t50pct_MCC50 / t50pct_Cmax: unit not given here; settings: for ME_24h: 24h; for ME_48h: 48h; for ME_72h: 72h; for AM/CELL NORM: sheet figure 4 A; for ME_24h (%): maximum effect at 24 h; for ME_24h (%) / ME_48h (%) / ME_72h (%): RoK assay; for ME_48h (%): maximum effect at 48 h; for ME_72h (%): maximum effect at 72 h; for ME 24h (maximum effect at 24 hours, intracellular amastigotes): maximum percentage of parasite burden reduction reached by any concentration
Procedure, shortened: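 Readouts at each time point are amastigotes per cell and host nuclei count (cytotoxicity), from DRAQ5 high-content imaging. Infection: trypomastigotes on H9c2 at MOI 8 for 18 h. Dosing was 5 μM single point or 11 points, 1/3 steps from 50 μM. Effect scaled between 4 h infected and uninfected controls.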

Structure (SMILES) | Trypomastigotes pIC50 48 hours [1] | Trypomastigotes pIC50 72 hours [1] | 72 pIC50 (trypomastigotes, raw data of Fig 1D) [1] | 48 pIC50 ([1]; figure 1A) | 72 pIC50 ([1]; figure 1A) | 72 pIC50 ([1]; figure 1B) | ME_24h ([2]; figure 5) | ME_48h ([2]; figure 5) | ME_72h ([2]; figure 5) | MCCE ([2]; RoK curve descriptor) | AM/CELL NORM ([2]; Time 4) | AM/CELL NORM ([2]; Time 24) | AM/CELL NORM ([2]; Time 48) | AM/CELL NORM ([2]; Time 72) | tlag_Cmax ([2]; at Cmax) | t50pct_Cmax ([2]; at Cmax, figure 5) | tlag_Cmax ([2]; at Cmax, figure 5) | t50pct_MCC50 ([2]; at MCC50, figure 5) | tlag_MCC50 ([2]; at MCC50, figure 5) | MCCE ([2]; figure 5) | also measured
Cc1nnnn1-c1cccc(C(=O)N2CCC[C@@]3(C)c4ncncc4CCC23)c1 (stereo partly shown) [TCMDC-143148] | < 4.3 | < 4.3 | < 4.3 | < 4.3 | < 4.3 | < 4.3 | -108.08 | -0.7839 | 73.626 | 0.6 µM | 4.786 | -133.046 | -35.529 | 70.8755 | 24.0 h | 72 | 24 | 72 | 24 | 0.6173 | MCC50 ([2]; RoK curve descriptor): 1.9 µM; t50%_Cmax ([2]; at Cmax): 72.0 h; t50%_MCC50 ([2]; at MCC50): 72.0 h; tlag_MCC50 ([2]; at MCC50): 24.0 h; MCC50 ([2]; figure 5, in µM): 1.852; ME_24h (%) [2]: -108.1%; ME_48h (%) [2]: -0.8%; ME_72h (%) [2]: 73.6%; ME 24h (maximum effect at 24 hours, intracellular amastigotes) [2]: -108.08%
O=C(c1cccc(Cl)c1Cl)N1CCn2c1nc(-c1ccncc1)cc2=O [TCMDC-143409] | < 4.3 | < 4.3 | < 4.3 | < 4.3 | < 4.3 | < 4.3 | -46.4941 | -253.426 | 11.7221 | 0.6 µM | 24.5196 | -46.4941 | -266.503 | -474.938 | 72.0 h | 72 | 72 | 72 | 72 | 0.6173 | MCC50 ([2]; figure 5): 50 µM; ME_24h (%) [2]: -46.5%; ME_48h (%) [2]: -253.4%; ME_72h (%) [2]: 11.7%; ME 24h (maximum effect at 24 hours, intracellular amastigotes) [2]: -46.4941%
CCn1nccc1CN(C)C(=O)C=Cc1ccc(Cl)cc1 [TCMDC-143325] | < 4.3 | < 4.3 | < 4.3 | < 4.3 | < 4.3 | < 4.3 | -25.9716 | -135.889 | 23.6762 | 0.6 µM | 13.1334 | -25.9716 | -135.889 | 23.6762 | 48.0 h | 72 | 48 | 72 | 72 | 0.6173 | MCC50 ([2]; figure 5): 50 µM; ME_24h (%) [2]: -26.0%; ME_48h (%) [2]: -135.9%; ME_72h (%) [2]: 23.7%; ME 24h (maximum effect at 24 hours, intracellular amastigotes) [2]: -25.9716%
